Holding throughout (test): inhibition of tumour cell growth, NCI panel, 48 h
Test [1] concerns A498.
The test system of test [2] is COLO 205.
For test [3], the system named is EKVX.
The test system of test [4] is HCC 2998.
For test [5], the system named is HCT-15.
Test [6] has as its system HL-60.
Test [7] deals with MOLT-4.
Test [8] concerns NCI-H226.
The test system of test [9] is OVCAR-3.
Test [10] has as its system OVCAR-8.
Test [11] concerns RPMI-8226.
Test [12] concerns SF-295.
The subject of test [13] is SN12C.
In test [14] the test system is SNB-19.
Test [15] deals with TK-10.
Test [16] deals with OVCAR-4.

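A five-concentration, 48-hour dose response in 96-well plates underlies each endpoint, interpolated linearly between surrounding concentrations. The concentration for 50% growth inhibition is given as GI50.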 Active and inactive are the calls of the source. No stated cut-off is given here; in the data, active = GI50 up to about 1.1 µM and inactive = higher.

On to `CCOC(=O)C1Cc2ccc3c4c(ccc(c24)C1)CC(C(=O)OCC)C3`, for which the GI50 was > 100 µM (inactive) in test [1]; > 100 µM (inactive) in test [2]; > 100 µM (inactive) in test [3]; > 100 µM (inactive) in test [4]; over 100 µM in [5]; > 100 µM (inactive) in [6]. The GI50 in test [7], in test [8], in test [9], in [10], in test [11] and in test [12] was > 100 µM (inactive) each time. Moreover, the GI50 in test [13], in test [14] and in test [15] was > 100 µM (inactive) in each case.
With `CCOC(=O)c1nc(-c2ccccc2)oc1OCC`, the GI50 in test [2] is > 100 µM (inactive); in test [3], 21 µM (inactive); in [4] it was > 100 µM (inactive); in test [6] it was 49.9 µM (inactive); in [7], 60.7 µM (inactive); in [8], > 100 µM (inactive). Besides, the GI50 was > 100 µM (inactive) in [9]; > 100 µM (inactive) in test [16]; > 100 µM (inactive) in [10]; 92.7 µM (inactive) in [11]; > 100 µM (inactive) in [12]; > 100 µM (inactive) in test [13]. The GI50 in [14] and in test [15] was > 100 µM (inactive) in each case.
`CCOC(=O)NC(=O)c1cn(CC(=O)NCC(=O)NCC(=O)NCCCN2CCN(CCCNC(=O)CNC(=O)CNC(=O)Cn3cc(C(=O)NC(=O)OCC)c(=O)[nH]c3=O)CC2)c(=O)[nH]c1=O`: the GI50 is > 100 µM (inactive) in test [1]; > 100 µM (inactive) in [2]; > 100 µM (inactive) in [4]; over 100 µM in test [5]; > 100 µM (inactive) in test [6]; > 100 µM (inactive) in test [7]. The GI50 in test [9], in [10], in test [12], in test [13], in test [14] and in test [15] was > 100 µM (inactive) each time.
With `Cc1cc(O)nc(NNC(C#N)c2c(O)ccc3ccccc23)n1` (configuration not stated), the GI50 in [2] was 22.4 µM (inactive); in test [5], 1.82 µM; in [6], 0.966 µM (active); in test [7], 2.34 µM (inactive); in test [8], 4.14 µM (inactive); in test [9], 1.78 µM (inactive). Moreover, the GI50 was 3.32 µM (inactive) in [16]; 3.1 µM (inactive) in test [10]; 3.72 µM (inactive) in test [11]; 4.74 µM (inactive) in test [12]; 3.18 µM (inactive) in test [13]; 9.06 µM (inactive) in test [15].
As to `COc1cc2c(cc1OC)C1(c3ccccc3)ON=C(c3ccccc3)N1CS2` (configuration not stated), the GI50 is > 100 µM (inactive) in test [1]; > 100 µM (inactive) in test [2]; > 100 µM (inactive) in test [3]; > 100 µM (inactive) in [4]; over 100 µM in [5]; 16.1 µM (inactive) in test [6]. The GI50 in [7] is 16.1 µM (inactive); in test [8], > 100 µM (inactive); in [9], > 100 µM (inactive); in test [16] it was > 100 µM (inactive); in test [11] it was 67.6 µM (inactive); in test [12], 60.1 µM (inactive). The GI50 in test [13], in [14] and in test [15] was > 100 µM (inactive) in each case.
In the case of `CCCCOP1(=O)CC(C)=C(Cl)C(C)(OC)C1` (configuration not stated), the GI50 in test [2] was > 100 µM (inactive); in test [3], > 100 µM (inactive); in test [4] it was > 100 µM (inactive); in test [5], over 100 µM; in [6], 26.9 µM (inactive); in test [7], 34.4 µM (inactive). The GI50 was > 100 µM (inactive) in test [8]; > 100 µM (inactive) in test [9]; > 100 µM (inactive) in test [16]; 62.2 µM (inactive) in [10]; > 100 µM (inactive) in [12]; > 100 µM (inactive) in [13]. Further, the GI50 in [14] and in test [15] was > 100 µM (inactive) throughout.
`O=C1CCN2CCC(=O)c3c2c(cc2ccccc32)N1`: the GI50 is > 100 µM (inactive) in [1]; > 100 µM (inactive) in test [2]; > 100 µM (inactive) in test [3]; > 100 µM (inactive) in [4]; over 100 µM in test [5]; > 100 µM (inactive) in test [7]. Also, the GI50 in [8], in [9], in [10], in test [11], in test [12] and in test [13] was > 100 µM (inactive) throughout. The GI50 in test [14] and in [15] was > 100 µM (inactive) throughout.
Consider `COC(=O)CCCCCOS(=O)(=O)c1ccc(C)cc1`, for which the GI50 is > 100 µM (inactive) in [1]; > 100 µM (inactive) in test [2]; > 100 µM (inactive) in [3]; > 100 µM (inactive) in test [4]; over 100 µM in test [5]; > 100 µM (inactive) in [6]. Moreover, the GI50 is 78.7 µM (inactive) in [7]; > 100 µM (inactive) in test [9]; > 100 µM (inactive) in [10]; > 100 µM (inactive) in test [12]; > 100 µM (inactive) in [13]; > 100 µM (inactive) in test [14]. Besides, the GI50 in [15] was > 100 µM (inactive).
On to `COC(=O)C1CCC(C)CC1=O` (configuration not stated), for which the GI50 is > 100 µM (inactive) in test [1]; > 100 µM (inactive) in test [2]; > 100 µM (inactive) in test [3]; > 100 µM (inactive) in [4]; over 100 µM in test [5]; > 100 µM (inactive) in test [6]. The GI50 in test [7], in test [9], in test [16], in test [10], in test [11] and in [12] was > 100 µM (inactive) throughout. The GI50 in test [13], in test [14] and in test [15] was > 100 µM (inactive) throughout.
As for `CCOC(=O)C1=C(Nc2ccccc2)SC/C1=N\NC(=O)Cc1ccccc1`, the GI50 in test [1] is > 100 µM (inactive); in test [2] it was > 100 µM (inactive); in test [3], > 100 µM (inactive); in test [4] it was > 100 µM (inactive); in [5], over 100 µM; in [6], > 100 µM (inactive). For the same compound, the GI50 in test [7], in test [8], in test [9], in [16], in test [10] and in test [12] was > 100 µM (inactive) each time. Moreover, the GI50 in test [13], in test [14] and in test [15] was > 100 µM (inactive) throughout.
Consider `Cc1cc2occ(C)c(=O)c2c2c1OC(C)(C)S2`, for which the GI50 in test [2] is > 100 µM (inactive); in test [3], > 100 µM (inactive); in [4], > 100 µM (inactive); in test [5], over 100 µM; in [6], 38.1 µM (inactive); in test [7] it was 37.3 µM (inactive). In addition, the GI50 in test [8] is > 100 µM (inactive); in test [9] it was > 100 µM (inactive); in test [16], > 100 µM (inactive); in [10], > 100 µM (inactive); in [11] it was 82.4 µM (inactive); in test [12] it was > 100 µM (inactive). The GI50 in test [13], in test [14] and in [15] was > 100 µM (inactive) in each case.
Turning to `CCCCCCCCCCCC(=O)OCC1OC(OC)C(NC(=O)N(CCCl)N=O)C(O)C1O` (configuration not stated), the GI50 in test [1] is 18.7 µM (inactive); in test [2] it was 21.9 µM (inactive); in [4], 14.4 µM (inactive); in test [5], 27.2 µM; in test [7], 1.69 µM (inactive); in [8], 23 µM (inactive). For the same compound, the GI50 is 16.3 µM (inactive) in [9]; 17.8 µM (inactive) in test [16]; 19.3 µM (inactive) in test [10]; 7.5 µM (inactive) in test [11]; 8.24 µM (inactive) in test [12]; 11.6 µM (inactive) in test [13]. Besides, the GI50 in [14] is 10.1 µM (inactive); in [15], 25.7 µM (inactive).
For `COc1ccc(CN(O)C2C(CO)OC(n3cc(I)c(=O)[nH]c3=O)C2O)cc1` (configuration not stated), the GI50 in [1] was > 100 µM (inactive); in test [2] it was > 100 µM (inactive); in [3], > 100 µM (inactive); in test [4], > 100 µM (inactive); in [5], over 100 µM; in test [6], > 100 µM (inactive). Besides, the GI50 in test [7], in test [9], in test [16], in test [10], in test [11] and in [12] was > 100 µM (inactive) each time. The GI50 in test [13], in [14] and in test [15] was > 100 µM (inactive) throughout.
Turning to `O=C(NC12CC3CC(CC(C3)C1)C2)C(=O)c1c[nH]c2ccccc12`, the GI50 in test [2] is 18.7 µM (inactive); in test [3], 17.6 µM (inactive); in test [4], 14.8 µM (inactive); in test [5], 12.1 µM; in test [6], 15.5 µM (inactive); in test [7], 12.2 µM (inactive). In addition, the GI50 was > 10 µM (inactive) in [8]; 17 µM (inactive) in [9]; 16.3 µM (inactive) in test [16]; 12.2 µM (inactive) in test [11]; 10.2 µM (inactive) in test [12]; 16.5 µM (inactive) in test [13]. Besides, the GI50 in [14] was 17.9 µM (inactive); in test [15] it was 27 µM (inactive).

The record behind these values is ChEMBL document CHEMBL1201862, “PubChem BioAssay data set” (2004).
